Experimental data from PubChem BioAssay (NCI).
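Step 1: Grow cells in 96-well plates. Step 2: Expose to compound for 48 hours at 5 concentrations. Step 3: Interpolate endpoints linearly; if unreached, use highest concentration. TGI marks complete inhibition of growth.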

Columns and labels:
Assay in all cases: DTP human tumour cell line panel, 48 h
[1] = test system: HCT-116 colon
[2] = test system: KM12 colon
[3] = test system: SNB-19 CNS
[4] = test system: NCI-H460 lung
[5] = test system: RPMI-8226 leukemia
[6] = test system: MALME-3M melanoma
[7] = test system: SNB-75 CNS
[8] = test system: IGROV1 ovarian
[9] = test system: HCT-15 colon
[10] = test system: NCI-H226 lung
[11] = test system: SF-295 CNS
[12] = test system: SF-268 CNS
[13] = test system: LOX IMVI melanoma
[14] = test system: TK-10 renal
[15] = test system: ACHN renal
[16] = test system: K-562 leukemia
[17] = test system: HL-60(TB) leukemia
[18] = test system: OVCAR-8 ovarian
[19] = test system: DMS 273 small cell lung
[20] = test system: SR leukemia
[21] = test system: 786-0 renal
[22] = test system: HOP-62 NSCLC
[23] = test system: SW-620 colon
[24] = test system: A549 NSCLC
[25] = test system: SNB-78 CNS
[26] = test system: NCI-H23 lung
[27] = test system: XF 498 CNS
[28] = test system: OVCAR-3 ovarian
[29] = test system: SK-MEL-2 melanoma
[30] = test system: UO-31 renal
[31] = test system: MOLT-4 leukemia
[32] = test system: M19-MEL melanoma
[33] = test system: CCRF-CEM leukemia
[34] = test system: UACC-62 melanoma
[35] = test system: RXF 393 renal
[36] = test system: DMS 114 small cell lung
[37] = test system: OVCAR-4 ovarian
[38] = test system: KM20L2 colon
[39] = test system: OVCAR-5 ovarian
[40] = test system: SK-MEL-5 melanoma
[41] = test system: EKVX NSCLC
[42] = test system: COLO 205 colon
[43] = test system: SN12C renal
[44] = test system: U251 CNS
[45] = test system: NCI-H522 lung
[46] = test system: M14 melanoma
[47] = test system: SK-MEL-28 melanoma
[48] = test system: LXFL 529 NSCLC
[49] = test system: HT29 colon
[50] = test system: HOP-92 NSCLC
[51] = test system: HCC-2998 colon
[52] = test system: CAKI-1 renal
[53] = test system: DLD-1 colon
[54] = test system: UACC-257 melanoma
[55] = test system: SK-OV-3 ovarian
[56] = test system: SF-539 CNS

Measured: TGI

O=C1C[C@@H]2[C@@H](c3ccccc3)[C@@H]3C(=O)c4ccccc4NC(=O)[C@H]3[C@]2(O)c2ccccc2N1
not listed: [50] | [51] | [52] | [53] | [54] | [55] | [56]
> 100 µM: all other assays above

NC(=O)C(=O)C1C(=O)N(c2ccccc2)N=C1N (stereo not drawn)
not listed: [32] | [33] | [35] | [36] | [40] | [41] | [44]
> 100 µM: all other assays above
